Results: patent US11872202B2, “Pleuromutilin cinnamic acid ester compounds with activities against antibiotic-resistant infections” (SHAANXI UNIVERSITY OF SCIENCE AND TECHNOLOGY, priority 2021, dated 2024)
Converted amounts (≈) assume the structure as drawn. Read-outs that look alike come from different tables or passages of the source.

Assays:
Type in all cases: cell-based
[1] = test system: Escherichia coli ATCC25922; assay: MIC, micro-broth dilution method
Protocol: (§1) The minimum inhibitory concentration (MIC) of pleuromutilin cinnamate easters and their starting materials was tested by a micro-broth dilution method, with retamoline, vornimulin and tiamulin as positive controls.
(§2) The experimental strains included Gram-positive bacteria: Methicillin-sensitive Staphylococcus epidermidis ATCC12228, Staphylococcus aureus ATCC29213 and ATCC25923, and Methicillin-resistant Staphylococcus aureus ATCC33591; Gram-negative bacteria: Acinetobacter baumannii ATCC19606 and E. coli Bacillus ATCC25922 (the strains used were from the American type culture collection (ATCC)).

[2] = test system: Staphylococcus aureus ATCC25923; assay: MIC, micro-broth dilution method
Protocol: as §1, §2

[3] = test system: Acinetobacter baumannii ATCC19606; assay: MIC, micro-broth dilution method; details: for inhibition compared with tiamulin: statement in words from Table 1
Protocol: as §1, §2

[4] = test system: Methicillin-resistant Staphylococcus aureus ATCC33591; assay: MIC, micro-broth dilution method
Protocol: as §1, §2

[5] = test system: Staphylococcus aureus ATCC29213; assay: MIC, micro-broth dilution method
Protocol: as §1, §2

[6] = test system: Methicillin-sensitive Staphylococcus epidermidis ATCC12228; assay: MIC, micro-broth dilution method; details: for inhibitory effect compared with the three tested positive controls: methicillin-sensitive Staphylococcus epidermidis, statement in words from Table 1
Protocol: as §1, §2

[7] = In vitro cytotoxicity, CCK-8 method; details: human, read-out: median inhibitory concentration (IC50), cytotoxicity
Protocol: The in vitro cytotoxicity of pleuromutilin easters was determined by a CCK-8 method (the kit used was purchased from Shanghai Xige Biotechnology Co., Ltd.). Take healthy HepG2, HEK293 and A549 cell culture fluids (the cells used were from the American type culture collection (ATCC), and the used cell culture fluids were purchased from Thermo Fisher Scientific (China) Co., Ltd.), inoculate in a sterile 96-well cell culture plate, 180 μL/well, ensure that the number of cells is 1*10^4/well, place in a 37° C. CO2 incubator with a volume fraction of 5%, and culture for 24 h until the cells completely adhered. Add the test and control solutions, 20 µL per well, set 6 duplicate wells in parallel, and incubate at 37° C. in a CO2 incubator with a volume fraction of 5% at 37° C. for 24 h, and observe the cells under a microscope. Add 20 μL of 5 g/L CCK-8 solution to each well, and continue to culture for 4 h. The culture was terminated, the culture medium in the wells was gently aspirated, 100 μL of dimethyl sulfoxide was added to each well, and the wells were shaken at low speed for 10 min on a shaker to fully dissolve the crystals. The absorbance value was measured, and the half inhibitory concentration (IC50) was then calculated. The cytotoxicity to HepG2, HEK293 and A549 cells was evaluated according to the half inhibitory concentration (IC50).

[8] = test system: the different bacteria tested; assay: MIC, micro-broth dilution method, overall comparison over all strains; details: statement in words from Table 1
Protocol: as §1, §2

[9] = Escherichia coli ATCC25922, 37° C., 20-22 h, read-out: Minimum inhibitory concentration
[10] = Staphylococcus aureus ATCC25923, 37° C., 20-22 h, read-out: Minimum inhibitory concentration
[11] = Acinetobacter baumannii ATCC19606, 37° C., 20-22 h, read-out: Minimum inhibitory concentration
[12] = Methicillin-resistant Staphylococcus aureus ATCC33591, 37° C., 20-22 h, read-out: Minimum inhibitory concentration
[13] = Staphylococcus aureus ATCC29213, 37° C., 20-22 h, read-out: Minimum inhibitory concentration
[14] = Methicillin-sensitive Staphylococcus epidermidis ATCC12228, 37° C., 20-22 h, read-out: Minimum inhibitory concentration
[15] = Escherichia coli, ATCC25922, read-out: Minimum inhibitory concentration
[16] = Staphylococcus aureus, ATCC25923, read-out: Minimum inhibitory concentration
[17] = Acinetobacter baumannii, ATCC19606, read-out: Minimum inhibitory concentration
[18] = Staphylococcus aureus, ATCC33591, read-out: Minimum inhibitory concentration
[19] = Staphylococcus aureus, ATCC29213, read-out: Minimum inhibitory concentration
[20] = Staphylococcus epidermidis, ATCC12228, read-out: Minimum inhibitory concentration

Compound `C=C[C@]1(C)C[C@@H](OC(=O)COC(=O)/C=C/c2ccc([N+](=O)[O-])cc2)[C@]2(C)[C@H](C)CC[C@]3(CCC(=O)[C@H]32)[C@@H](C)[C@@H]1O` [Compound 1, (E)-2-(((3aR,4R,5R,8S,9R,12R)-8-hydroxy-4,7,9,12-tetramethyl-3-oxo-7-vinyldecahydro-4,9a-propanocyclopenta[8]annulen-5-yl)oxy)-2-oxoethyl 3-(4-nitrophenyl)acrylate] has an MIC [1, 9] of 32 µg/mL (≈ 57.8 µM), an MIC [2, 10] of 8 µg/mL (≈ 14.4 µM) and an MIC [3, 11] of 64 µg/mL (≈ 116 µM). For the same compound, the “inhibition compared with tiamulin” value ([3]; Acinetobacter baumannii) was “as much as tiamulin”, the MIC [4, 12] was 4 µg/mL (≈ 7.22 µM) and the MIC [5, 13] was 2 µg/mL (≈ 3.61 µM). The MIC [6, 14] was 2 µg/mL (≈ 3.61 µM), the “inhibitory effect compared with the three tested positive controls” value [6] was “better than that of the positive controls” and the IC50 at 24 h ([7]; A549 cells) was over 200 µM. For the same compound, the IC50 at 24 h ([7]; HEK293 cells) was over 200 µM and the IC50 at 24 h ([7]; HepG2 cells) was over 200 µM.

With `C=C[C@]1(C)C[C@@H](OC(=O)COC(=O)/C=C/c2ccc(OC)cc2)[C@]2(C)[C@H](C)CC[C@]3(CCC(=O)[C@H]32)[C@@H](C)[C@@H]1O` [Compound 4, (E)-2-(((3aR,4R,5R,8S,9R,12R)-8-hydroxy-4,7,9,12-tetramethyl-3-oxo-7-vinyldecahydro-4,9a-propanocyclopenta[8]annulen-5-yl)oxy)-2-oxoethyl 3-(4-methoxyphenyl)acrylate] the MIC [1, 9] was 32 µg/mL (≈ 59.4 µM), the MIC [2, 10] was 4 µg/mL (≈ 7.43 µM) and the MIC [3, 11] was over 256 µg/mL. It also gave an MIC [4, 12] of 16 µg/mL (≈ 29.7 µM), an MIC [5, 13] of 8 µg/mL (≈ 14.9 µM) and an MIC [6, 14] of 2 µg/mL (≈ 3.71 µM). For the same compound, the “inhibitory effect compared with the three tested positive controls” value [6] was “better than that of the positive controls”, the IC50 at 24 h ([7]; A549 cells) was 50.8 µM and the IC50 at 24 h ([7]; HEK293 cells) was 90.2 µM. It also gave an IC50 at 24 h ([7]; HepG2 cells) of 83.7 µM.

`C=C[C@]1(C)C[C@@H](OC(=O)COC(=O)/C=C/c2cccc(C#N)c2)[C@]2(C)[C@H](C)CC[C@]3(CCC(=O)[C@H]32)[C@@H](C)[C@@H]1O` [Compound 5, (E)-2-(((3aR,4R,5R,8S,9R,12R)-8-hydroxy-4,7,9,12-tetramethyl-3-oxo-7-vinyldecahydro-4,9a-propanocyclopenta[8]annulen-5-yl)oxy)-2-oxoethyl 3-(3-cyanophenyl)acrylate] gave an MIC [1, 9] of 64 µg/mL (≈ 120 µM), an MIC [2, 10] of 2 µg/mL (≈ 3.75 µM) and an MIC [3, 11] of 128 µg/mL (≈ 240 µM). It also gave an MIC [4, 12] of 16 µg/mL (≈ 30 µM), an MIC [5, 13] of 8 µg/mL (≈ 15 µM) and an MIC [6, 14] of 2 µg/mL (≈ 3.75 µM). The “inhibitory effect compared with the three tested positive controls” value [6] was “better than that of the positive controls”, the IC50 at 24 h ([7]; A549 cells) was over 200 µM and the IC50 at 24 h ([7]; HEK293 cells) was 29.2 µM. The IC50 at 24 h ([7]; HepG2 cells) was 78.5 µM.

Work on `C=C[C@]1(C)C[C@@H](OC(=O)COC(=O)/C=C/c2ccc(N(C)C)cc2)[C@]2(C)[C@H](C)CC[C@]3(CCC(=O)[C@H]32)[C@@H](C)[C@@H]1O` [Compound 10, (E)-2-(((3aR,4R,5R,8S,9R,12R)-8-hydroxy-4,7,9,12-tetramethyl-3-oxo-7-vinyldecahydro-4,9a-propanocyclopenta[8]annulen-5-yl)oxy)-2-oxoethyl 3-(4-(dimethylamino)phenyl)acrylate] yielded an MIC [1, 9] of 16 µg/mL (≈ 29 µM), an MIC [2, 10] of 1 µg/mL (≈ 1.81 µM) and an MIC [3, 11] of 32 µg/mL (≈ 58 µM). The “inhibition compared with tiamulin” value ([3]; Acinetobacter baumannii) was “as much as tiamulin”, the MIC [4, 12] was 2 µg/mL (≈ 3.63 µM) and the MIC [5, 13] was 2 µg/mL (≈ 3.63 µM). For the same compound, the MIC [6, 14] was 1 µg/mL (≈ 1.81 µM), the “inhibitory effect compared with the three tested positive controls” value [6] was “better than that of the positive controls” and the “inhibitory activity compared with the three tested positive controls” value [8] was “better or equal to that of the three tested positive controls”. For the same compound, the IC50 at 24 h ([7]; A549 cells) was over 200 µM, the IC50 at 24 h ([7]; HEK293 cells) was 34.6 µM and the IC50 at 24 h ([7]; HepG2 cells) was over 200 µM.

For `C=C[C@]1(C)C[C@@H](OC(=O)COC(=O)/C=C/c2ccc(F)c(Cl)c2)[C@]2(C)[C@H](C)CC[C@]3(CCC(=O)[C@H]32)[C@@H](C)[C@@H]1O` [Compound 20, (E)-2-(((3aR,4R,5R,8S,9R,12R)-8-hydroxy-4,7,9,12-tetramethyl-3-oxo-7-vinyldecahydro-4,9a-propanocyclopenta[8]annulen-5-yl)oxy)-2-oxoethyl 3-(3-chloro-4-fluorophenyl)acrylate], the MIC [1, 9] was 64 µg/mL (≈ 114 µM), the MIC [2, 10] was 16 µg/mL (≈ 28.5 µM) and the MIC [3, 11] was over 256 µg/mL. For the same compound, the MIC [4, 12] was 64 µg/mL (≈ 114 µM), the MIC [5, 13] was 32 µg/mL (≈ 57 µM) and the MIC [6, 14] was 32 µg/mL (≈ 57 µM).

Compound `C=C[C@]1(C)C[C@@H](OC(=O)COC(=O)/C=C/c2ccccc2C(F)(F)F)[C@]2(C)[C@H](C)CC[C@]3(CCC(=O)[C@H]32)[C@@H](C)[C@@H]1O` [Compound 21] has an MIC [1, 9] of over 256 µg/mL, an MIC [2, 10] of 32 µg/mL (≈ 55.5 µM) and an MIC [3, 11] of over 256 µg/mL. For the same compound, the MIC [4, 12] was 128 µg/mL (≈ 222 µM), the MIC [5, 13] was 64 µg/mL (≈ 111 µM) and the MIC [6, 14] was 64 µg/mL (≈ 111 µM).

Compound `C=C[C@]1(C)C[C@@H](OC(=O)CS[C@@H]2C[C@H]3CC[C@@H](C2)N3C)[C@]2(C)[C@H](C)CC[C@]3(CCC(=O)[C@H]32)[C@@H](C)[C@@H]1O` [Retapamulin, reference compound] has an MIC [1, 15] of 32 µg/mL (≈ 61.8 µM), an MIC [2, 16] of 4 µg/mL (≈ 7.73 µM) and an MIC [3, 17] of 16 µg/mL (≈ 30.9 µM). It also gave an MIC [4, 18] of 32 µg/mL (≈ 61.8 µM), an MIC [5, 19] of 4 µg/mL (≈ 7.73 µM) and an MIC [6, 20] of 32 µg/mL (≈ 61.8 µM).

Work on `C=C[C@]1(C)C[C@@H](OC(=O)CSCCN(CC)CC)[C@]2(C)[C@H](C)CC[C@]3(CCC(=O)[C@H]32)[C@@H](C)[C@@H]1O` [Tiamulin, reference compound] yielded an MIC [1, 9] of 128 µg/mL (≈ 259 µM), an MIC [2, 10] of 64 µg/mL (≈ 130 µM) and an MIC [3, 11] of 64 µg/mL (≈ 130 µM). It also gave an MIC [4, 12] of 128 µg/mL (≈ 259 µM), an MIC [5, 13] of 256 µg/mL (≈ 518 µM) and an MIC [6, 14] of 16 µg/mL (≈ 32.4 µM). For the same compound, the IC50 at 24 h ([7]; A549 cells) was over 200 µM, the IC50 at 24 h ([7]; HEK293 cells) was 84.9 µM and the IC50 at 24 h ([7]; HepG2 cells) was 27.1 µM.

`C=C[C@]1(C)C[C@@H](OC(=O)CSC(C)(C)CNC(=O)[C@H](N)C(C)C)[C@]2(C)[C@H](C)CC[C@]3(CCC(=O)[C@H]32)[C@@H](C)[C@@H]1O` [Valnemulin, reference compound] gave an MIC [1, 15] of 16 µg/mL (≈ 28.3 µM), an MIC [2, 16] of 4 µg/mL (≈ 7.08 µM) and an MIC [3, 17] of 2 µg/mL (≈ 3.54 µM). It also gave an MIC [4, 18] of over 256 µg/mL, an MIC [5, 19] of 2 µg/mL (≈ 3.54 µM) and an MIC [6, 20] of 64 µg/mL (≈ 113 µM).
